# Reference: ChEMBL document CHEMBL1201862, “PubChem BioAssay data set” (2004)
# Calls of active or inactive are those of the source.
# Experiments:
# Cannabinoid receptor 2 [1] = target: T1, Cannabinoid receptor 2 (Homo sapiens, UniProt P34972); experiment: SAR analysis of antagonists of the Cannabinoid Receptor 2 using an Image-Based Assay. [Related pubchem assays (depositor defined):AID2013, AID2026]; type: functional
# [2] = target: T2, G-protein coupled receptor 35 (Homo sapiens, UniProt Q9HC97); experiment: SAR analysis of Agonists of the GPR35 Receptor using an Image-Based Assay - Set 2. [Related pubchem assays (depositor defined):AID2013, AID2026]; type: functional
# Cannabinoid receptor 1 [3] = target: T3, Cannabinoid receptor 1 (Homo sapiens, UniProt P21554); experiment: SAR analysis of antagonists of the Cannabinoid Receptor 1 using an Image-Based Assay - Set 2. [Related pubchem assays (depositor defined):AID2013, AID2026]; type: functional
# [4] = target: T2, G-protein coupled receptor 35; experiment: SAR analysis of Antagonists of the GPR35 Receptor using an Image-Based Assay - Set 3. [Related pubchem assays (depositor defined):AID2013, AID2026]; type: functional
# [5] = target: T4, G-protein coupled receptor 55 (Homo sapiens, UniProt Q9Y2T6); experiment: blockade of LPI-induced GPR55 arrestin translocation – imaging, U2OS, beta-arrestin-GFP, LPI agonist, set 2, SAR follow-up (AID 2820); type: functional
# Cannabinoid receptor 1 [6] = target: T3, Cannabinoid receptor 1; experiment: SAR analysis of agonists of the Cannabinoid Receptor 1 using an Image-Based Assay - Set 2. [Related pubchem assays (depositor defined):AID2013, AID2026]; type: functional
# [7] = target: T4, G-protein coupled receptor 55; experiment: inhibition of LPI-stimulated GPR55 beta-arrestin translocation – imaging, U2OS, beta-arrestin-GFP, LPI agonist, primary screen (AID 2013); type: functional;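 also: antagonist potency measured as reduced agonist-driven arrestin aggregation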
# Cannabinoid receptor 2 [8] = target: T1, Cannabinoid receptor 2; experiment: SAR analysis of agonists of the Cannabinoid Receptor 2 using an Image-Based Assay. [Related pubchem assays (depositor defined):AID2013, AID2026]; type: functional
# [9] = target: T5, Kappa-type opioid receptor (Homo sapiens, UniProt P41145); experiment: SAR analysis of small molecule agonists of the kappa opioid receptor via a luminescent beta-arrestin assay. [Related pubchem assays (depositor defined):AID1777, AID1786, AID1966, AID2133, AID2136, AID2348, AID2352, AID2357, AID2359, AID2370, AID2420, AID2478, AID2491, AID2492, AID2493, AID2497, AID2498, AID2500, AID449737, AID488822, AID488842]; type: functional
# [10] = target: T5, Kappa-type opioid receptor; experiment: kappa opioid receptor blockers, image-based, SAR follow-up (AID 2348); type: functional
# Mu-type opioid receptor [11] = target: T6, Mu-type opioid receptor (Homo sapiens, UniProt P35372); experiment: mu opioid receptor activators, image-based, SAR follow-up (AID 2352); type: functional
# Mu-type opioid receptor [12] = target: T6, Mu-type opioid receptor; experiment: mu opioid receptor blockers – image-based, SAR follow-up (AID 2420); type: functional;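 also: compounds added before stimulation of receptor with agonist DAMGO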
# [13] = target: T5, Kappa-type opioid receptor; type: functional
# [14] = target: T5, Kappa-type opioid receptor; experiment: kappa opioid receptor activation potency – imaging, image-based, SAR follow-up (AID 2359); type: functional
# [15] = target: T7, Delta-type opioid receptor (Homo sapiens, UniProt P41143); experiment: HTS Image-Based Screen for Antagonists of the DOR Receptor. [Related pubchem assays (depositor defined):AID1777, AID1785, AID1786, AID2133]; type: functional
# [16] = target: T7, Delta-type opioid receptor; experiment: DOR agonists, SAR follow-up, image-based (AID 2370); type: functional
# [17] = target: T5, Kappa-type opioid receptor; type: functional; remark: listed apart in the source
# [18] = target: T7, Delta-type opioid receptor; experiment: delta opioid receptor blockers – image-based, SAR follow-up (AID 2357); type: functional
# Mu-type opioid receptor [19] = target: T6, Mu-type opioid receptor; experiment: HTS Image-Based Screen for Agonists of the MOR Receptor. [Related pubchem assays (depositor defined):AID1777, AID1785, AID1786, AID2133]; type: functional
# [20] = target: T7, Delta-type opioid receptor; experiment: HTS Image-Based Screen for Agonists of the DOR Receptor. [Related pubchem assays (depositor defined):AID1777, AID1786, AID2133]; type: functional
# [21] = target: Tyrosine-protein phosphatase non-receptor type 12 (Homo sapiens, UniProt Q05209); experiment: SAR Selectivity Analysis of small molecule inhibitors of PEST using pCAP in a fluorescence assay. [Related pubchem assays (depositor defined):AID1779, AID1784, AID2135]; type: functional
# [22] = target: T8, Tyrosine-protein phosphatase non-receptor type 22 (Homo sapiens, UniProt Q9Y2R2); experiment: SAR LYP1 Fluorescent Assay using OMFP substrate for In Vitro dose response studies - Set 3. [Related pubchem assays (depositor defined):AID1779, AID1784, AID2140, AID2686]; type: functional
# T8 sequence (Q9Y2R2 whole entry): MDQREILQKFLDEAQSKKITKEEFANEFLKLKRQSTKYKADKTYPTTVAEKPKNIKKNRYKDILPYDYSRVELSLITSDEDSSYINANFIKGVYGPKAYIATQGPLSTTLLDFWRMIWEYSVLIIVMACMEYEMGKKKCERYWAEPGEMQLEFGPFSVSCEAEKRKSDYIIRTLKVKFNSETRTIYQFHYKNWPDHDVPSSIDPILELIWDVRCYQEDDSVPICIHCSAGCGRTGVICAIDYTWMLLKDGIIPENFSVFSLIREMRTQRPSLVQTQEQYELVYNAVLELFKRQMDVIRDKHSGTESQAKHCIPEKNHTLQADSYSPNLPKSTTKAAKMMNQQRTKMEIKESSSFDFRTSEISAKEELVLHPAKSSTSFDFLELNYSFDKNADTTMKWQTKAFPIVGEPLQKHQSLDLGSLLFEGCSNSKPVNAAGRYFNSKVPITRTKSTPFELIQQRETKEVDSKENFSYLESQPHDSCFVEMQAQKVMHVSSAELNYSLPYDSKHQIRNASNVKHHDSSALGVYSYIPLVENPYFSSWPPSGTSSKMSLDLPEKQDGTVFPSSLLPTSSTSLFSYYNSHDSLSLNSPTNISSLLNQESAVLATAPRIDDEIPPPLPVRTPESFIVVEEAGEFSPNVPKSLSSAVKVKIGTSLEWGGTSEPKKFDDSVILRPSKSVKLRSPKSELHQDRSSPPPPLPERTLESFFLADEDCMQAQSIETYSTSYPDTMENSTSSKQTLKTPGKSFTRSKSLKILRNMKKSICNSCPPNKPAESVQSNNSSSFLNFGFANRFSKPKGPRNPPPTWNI
# [23] = target: T9, Tyrosine-protein phosphatase non-receptor type 7 (Homo sapiens, UniProt P35236); experiment: inhibition of hematopoietic tyrosine phosphatase HePTP – biochemical, set 2, SAR follow-up (AID 449736); type: functional
# T9 sequence (P35236 whole entry): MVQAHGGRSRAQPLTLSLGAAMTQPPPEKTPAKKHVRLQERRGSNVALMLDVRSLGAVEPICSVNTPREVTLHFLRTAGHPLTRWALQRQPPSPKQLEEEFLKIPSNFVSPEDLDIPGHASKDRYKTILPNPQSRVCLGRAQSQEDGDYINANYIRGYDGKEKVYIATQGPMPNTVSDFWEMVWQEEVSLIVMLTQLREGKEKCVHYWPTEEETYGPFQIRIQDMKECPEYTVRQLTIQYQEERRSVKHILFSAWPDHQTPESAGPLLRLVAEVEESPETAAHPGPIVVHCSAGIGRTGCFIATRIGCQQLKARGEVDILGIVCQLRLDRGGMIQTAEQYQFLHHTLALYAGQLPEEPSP
# [24] = target: T8, Tyrosine-protein phosphatase non-receptor type 22; experiment: SAR LYP1 Fluorescent Assay using pCAP substrate for In Vitro dose response studies - Set 2. [Related pubchem assays (depositor defined):AID1779, AID1784, AID2135, AID449727]; type: functional
# [25] = target: T8, Tyrosine-protein phosphatase non-receptor type 22; experiment: SAR LYP1 Fluorescent Assay using OMFP substrate for In Vitro dose response studies - Set 2. [Related pubchem assays (depositor defined):AID1779, AID1784, AID2140, AID449726, AID488869]; type: functional
# [26] = target: T8, Tyrosine-protein phosphatase non-receptor type 22; experiment: inhibition of lymphoid tyrosine phosphatase LYP – biochemical, pCAP fluorogenic substrate, fluorescence, set 3, SAR follow-up (AID 449727); type: functional
# [27] = target: Peroxisome proliferator-activated receptor gamma/Nuclear receptor coactivator 1 (Homo sapiens, UniProt P37231); experiment: TR-FRET dose response biochemical High Throughput Screening assay for agonists of the steroid receptor coactivator 1 (SRC-1) recruitment by the peroxisome proliferator-activated receptor gamma (PPAR gamma): non-selective agonists. [Related pubchem assays (depositor defined):AID1300, AID1808, AID504735, AID631]; type: protein assay
# [28] = target: Peroxisome proliferator-activated receptor gamma/Nuclear receptor coactivator 3 (Homo sapiens, UniProt P37231); experiment: TR-FRET dose response biochemical High Throughput Screening assay for agonists of the steroid receptor coactivator 3 (SRC-3) recruitment by the peroxisome proliferator-activated receptor gamma (PPAR gamma): non-selective agonists. [Related pubchem assays: 1301 (Confirmation screen.), 1048 (Primary screen.)]; type: functional
# [29] = target: Peroxisome proliferator-activated receptor gamma/Nuclear receptor coactivator 2 (Homo sapiens, UniProt P37231); experiment: TR-FRET dose response biochemical High Throughput Screening assay for agonists of the steroid receptor coactivator 2 (SRC-2) recruitment by the peroxisome proliferator-activated receptor gamma (PPAR gamma): non-selective agonists. [Related pubchem assays: 1297, 1032 ]; type: functional
# [30] = target: T10, Alkaline phosphatase, tissue-nonspecific isozyme (Homo sapiens, UniProt P05186); experiment: TNAP enzyme inhibition by screening hits, dose response, selectivity assay for mouse IAP inhibitor project, biochemical, human TNAP, uHTS hits (AID 488906); type: functional
# T10 sequence (P05186 whole entry): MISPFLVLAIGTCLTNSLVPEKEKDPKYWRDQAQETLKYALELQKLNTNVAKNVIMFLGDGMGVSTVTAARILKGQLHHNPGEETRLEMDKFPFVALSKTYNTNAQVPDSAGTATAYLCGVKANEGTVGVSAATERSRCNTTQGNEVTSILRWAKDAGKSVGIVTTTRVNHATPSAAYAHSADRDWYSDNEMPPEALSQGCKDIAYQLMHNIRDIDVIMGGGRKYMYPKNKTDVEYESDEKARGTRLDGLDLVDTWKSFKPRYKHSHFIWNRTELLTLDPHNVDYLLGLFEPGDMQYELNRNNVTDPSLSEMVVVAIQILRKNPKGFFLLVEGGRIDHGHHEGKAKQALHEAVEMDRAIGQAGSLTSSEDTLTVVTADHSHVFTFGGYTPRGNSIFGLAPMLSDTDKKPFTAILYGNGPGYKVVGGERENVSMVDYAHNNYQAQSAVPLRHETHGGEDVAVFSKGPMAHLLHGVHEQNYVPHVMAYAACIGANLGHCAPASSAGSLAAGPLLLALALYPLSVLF
# [31] = target: Intestinal-type alkaline phosphatase (Mus musculus, UniProt P24822); experiment: PubChem AID 488785; type: functional
# [32] = target: T11, Polyadenylate-binding protein 1 (Homo sapiens, UniProt P11940); experiment: MLLE domain peptide-binding blockers, IC50 – biochemical, fluorescence polarization, FITC-PAM2 peptide, dose response (AID 602259); type: functional; conditions: read-out: IC50_Mean
# [33] = target: Intestinal-type alkaline phosphatase (Homo sapiens, UniProt P09923); experiment: activation of human intestinal alkaline phosphatase – biochemical, dose response (AID 488873); type: functional
# [34] = target: T11, Polyadenylate-binding protein 1; experiment: MLLE binding blockers, Cy5 peptide tracer – biochemical, fluorescence polarization, Cy5-PAM2 peptide, secondary, miRNA deadenylation inhibitor project, dose response (AID 602260); type: functional; conditions: read-out: IC50_Mean
# T5 sequence (P41145 whole entry): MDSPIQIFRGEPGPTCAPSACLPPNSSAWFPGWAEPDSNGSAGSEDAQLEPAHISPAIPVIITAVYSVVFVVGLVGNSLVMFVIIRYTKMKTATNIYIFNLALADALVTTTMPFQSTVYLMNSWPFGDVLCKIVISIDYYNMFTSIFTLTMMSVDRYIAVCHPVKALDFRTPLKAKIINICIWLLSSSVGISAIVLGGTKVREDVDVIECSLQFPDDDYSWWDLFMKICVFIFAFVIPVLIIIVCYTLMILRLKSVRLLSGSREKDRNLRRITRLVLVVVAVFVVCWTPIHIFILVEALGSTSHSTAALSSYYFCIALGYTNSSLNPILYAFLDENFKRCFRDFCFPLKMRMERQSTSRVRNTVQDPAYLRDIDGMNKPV
# T6 sequence (P35372 whole entry): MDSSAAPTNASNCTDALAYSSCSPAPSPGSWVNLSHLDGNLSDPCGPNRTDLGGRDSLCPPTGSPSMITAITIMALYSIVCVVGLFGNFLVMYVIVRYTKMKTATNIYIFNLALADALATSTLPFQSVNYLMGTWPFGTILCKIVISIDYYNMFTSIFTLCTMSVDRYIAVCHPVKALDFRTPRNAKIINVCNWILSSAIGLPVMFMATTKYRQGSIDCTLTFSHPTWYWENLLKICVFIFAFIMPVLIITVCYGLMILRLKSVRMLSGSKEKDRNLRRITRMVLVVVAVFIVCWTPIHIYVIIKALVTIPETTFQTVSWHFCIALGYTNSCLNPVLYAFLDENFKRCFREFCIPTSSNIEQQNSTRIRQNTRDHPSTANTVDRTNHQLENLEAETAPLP
# T7 sequence (P41143 whole entry): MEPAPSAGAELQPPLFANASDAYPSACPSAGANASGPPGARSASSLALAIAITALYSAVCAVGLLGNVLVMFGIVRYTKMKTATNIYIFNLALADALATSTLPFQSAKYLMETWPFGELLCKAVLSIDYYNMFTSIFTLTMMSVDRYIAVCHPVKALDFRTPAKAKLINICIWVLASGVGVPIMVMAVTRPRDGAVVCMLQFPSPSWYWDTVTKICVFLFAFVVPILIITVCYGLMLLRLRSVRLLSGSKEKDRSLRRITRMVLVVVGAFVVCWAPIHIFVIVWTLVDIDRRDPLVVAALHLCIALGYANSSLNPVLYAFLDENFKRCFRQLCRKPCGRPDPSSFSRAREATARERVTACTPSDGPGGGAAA
# T1 sequence (P34972 whole entry): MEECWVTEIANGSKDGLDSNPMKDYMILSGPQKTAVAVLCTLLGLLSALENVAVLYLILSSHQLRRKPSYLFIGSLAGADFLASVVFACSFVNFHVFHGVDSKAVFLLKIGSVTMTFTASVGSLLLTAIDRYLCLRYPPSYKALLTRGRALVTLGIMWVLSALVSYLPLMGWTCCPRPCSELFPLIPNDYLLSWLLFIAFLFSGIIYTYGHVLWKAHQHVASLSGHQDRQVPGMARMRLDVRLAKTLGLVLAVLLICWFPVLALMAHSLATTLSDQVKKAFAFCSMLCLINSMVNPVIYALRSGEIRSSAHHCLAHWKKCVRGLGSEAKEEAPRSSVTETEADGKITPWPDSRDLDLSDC
# T11 sequence (P11940 whole entry, the tested form may be a part): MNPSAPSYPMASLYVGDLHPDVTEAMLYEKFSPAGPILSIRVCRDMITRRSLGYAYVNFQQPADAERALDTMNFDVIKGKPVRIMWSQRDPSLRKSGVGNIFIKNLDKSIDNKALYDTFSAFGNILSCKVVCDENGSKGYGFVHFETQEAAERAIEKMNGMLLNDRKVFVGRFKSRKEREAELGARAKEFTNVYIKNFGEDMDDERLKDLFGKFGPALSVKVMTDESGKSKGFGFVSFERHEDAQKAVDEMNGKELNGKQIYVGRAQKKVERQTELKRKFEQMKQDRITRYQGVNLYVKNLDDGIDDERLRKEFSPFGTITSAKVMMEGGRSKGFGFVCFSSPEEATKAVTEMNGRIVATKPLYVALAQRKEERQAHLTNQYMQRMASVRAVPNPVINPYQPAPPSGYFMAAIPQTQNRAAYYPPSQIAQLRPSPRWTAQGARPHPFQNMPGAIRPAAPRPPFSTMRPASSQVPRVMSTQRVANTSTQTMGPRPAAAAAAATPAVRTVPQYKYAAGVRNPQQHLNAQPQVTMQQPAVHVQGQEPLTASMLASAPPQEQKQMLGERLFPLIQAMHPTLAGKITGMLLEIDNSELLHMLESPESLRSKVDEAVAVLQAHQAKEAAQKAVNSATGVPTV
# T4 sequence (Q9Y2T6 whole entry): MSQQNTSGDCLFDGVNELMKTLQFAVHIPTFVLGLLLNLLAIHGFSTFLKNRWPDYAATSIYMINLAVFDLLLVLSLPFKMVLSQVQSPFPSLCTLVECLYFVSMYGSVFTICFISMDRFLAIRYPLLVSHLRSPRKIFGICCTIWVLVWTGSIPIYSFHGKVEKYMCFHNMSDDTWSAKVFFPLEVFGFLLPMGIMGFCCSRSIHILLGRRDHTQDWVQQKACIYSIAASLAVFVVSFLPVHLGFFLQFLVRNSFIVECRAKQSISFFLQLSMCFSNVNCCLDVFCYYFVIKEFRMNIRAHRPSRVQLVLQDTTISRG
# T3 sequence (P21554 whole entry): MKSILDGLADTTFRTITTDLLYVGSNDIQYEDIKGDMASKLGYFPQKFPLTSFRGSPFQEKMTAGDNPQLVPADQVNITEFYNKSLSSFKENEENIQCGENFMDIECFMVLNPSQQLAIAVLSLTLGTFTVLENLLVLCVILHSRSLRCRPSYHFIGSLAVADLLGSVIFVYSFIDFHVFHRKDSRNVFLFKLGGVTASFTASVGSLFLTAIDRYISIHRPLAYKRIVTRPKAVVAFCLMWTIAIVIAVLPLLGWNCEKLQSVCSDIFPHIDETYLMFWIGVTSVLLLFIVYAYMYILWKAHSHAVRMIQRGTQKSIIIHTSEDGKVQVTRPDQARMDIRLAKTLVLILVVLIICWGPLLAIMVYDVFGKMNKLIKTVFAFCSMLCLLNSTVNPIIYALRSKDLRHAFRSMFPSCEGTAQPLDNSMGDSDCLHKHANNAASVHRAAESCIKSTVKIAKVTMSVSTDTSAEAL
# T2 sequence (Q9HC97 whole entry): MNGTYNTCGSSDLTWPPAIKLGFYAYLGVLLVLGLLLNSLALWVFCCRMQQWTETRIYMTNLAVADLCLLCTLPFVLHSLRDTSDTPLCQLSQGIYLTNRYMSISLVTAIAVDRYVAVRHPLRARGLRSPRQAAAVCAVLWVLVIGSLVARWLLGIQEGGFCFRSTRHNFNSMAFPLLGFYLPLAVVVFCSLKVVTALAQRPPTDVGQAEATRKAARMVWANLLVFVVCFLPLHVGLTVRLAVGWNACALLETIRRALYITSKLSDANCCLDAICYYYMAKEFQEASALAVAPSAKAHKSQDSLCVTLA
# Intestinal-type alkaline phosphatase (Homo sapiens, UniProt P09923), sequence (P09923 whole entry): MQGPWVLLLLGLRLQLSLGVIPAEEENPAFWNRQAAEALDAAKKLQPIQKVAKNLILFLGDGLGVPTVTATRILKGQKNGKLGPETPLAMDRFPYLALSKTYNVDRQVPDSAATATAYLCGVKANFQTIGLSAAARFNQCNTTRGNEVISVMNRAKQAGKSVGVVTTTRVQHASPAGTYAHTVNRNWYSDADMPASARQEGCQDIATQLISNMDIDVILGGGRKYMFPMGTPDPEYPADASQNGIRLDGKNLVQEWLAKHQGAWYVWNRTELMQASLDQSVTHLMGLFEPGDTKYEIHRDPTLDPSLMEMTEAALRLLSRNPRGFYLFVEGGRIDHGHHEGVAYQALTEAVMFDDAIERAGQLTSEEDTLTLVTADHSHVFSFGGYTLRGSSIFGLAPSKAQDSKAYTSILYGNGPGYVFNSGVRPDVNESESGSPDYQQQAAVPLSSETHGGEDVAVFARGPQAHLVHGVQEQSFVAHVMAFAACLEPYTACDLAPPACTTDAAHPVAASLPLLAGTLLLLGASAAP
# Tyrosine-protein phosphatase non-receptor type 12, sequence (Q05209 whole entry): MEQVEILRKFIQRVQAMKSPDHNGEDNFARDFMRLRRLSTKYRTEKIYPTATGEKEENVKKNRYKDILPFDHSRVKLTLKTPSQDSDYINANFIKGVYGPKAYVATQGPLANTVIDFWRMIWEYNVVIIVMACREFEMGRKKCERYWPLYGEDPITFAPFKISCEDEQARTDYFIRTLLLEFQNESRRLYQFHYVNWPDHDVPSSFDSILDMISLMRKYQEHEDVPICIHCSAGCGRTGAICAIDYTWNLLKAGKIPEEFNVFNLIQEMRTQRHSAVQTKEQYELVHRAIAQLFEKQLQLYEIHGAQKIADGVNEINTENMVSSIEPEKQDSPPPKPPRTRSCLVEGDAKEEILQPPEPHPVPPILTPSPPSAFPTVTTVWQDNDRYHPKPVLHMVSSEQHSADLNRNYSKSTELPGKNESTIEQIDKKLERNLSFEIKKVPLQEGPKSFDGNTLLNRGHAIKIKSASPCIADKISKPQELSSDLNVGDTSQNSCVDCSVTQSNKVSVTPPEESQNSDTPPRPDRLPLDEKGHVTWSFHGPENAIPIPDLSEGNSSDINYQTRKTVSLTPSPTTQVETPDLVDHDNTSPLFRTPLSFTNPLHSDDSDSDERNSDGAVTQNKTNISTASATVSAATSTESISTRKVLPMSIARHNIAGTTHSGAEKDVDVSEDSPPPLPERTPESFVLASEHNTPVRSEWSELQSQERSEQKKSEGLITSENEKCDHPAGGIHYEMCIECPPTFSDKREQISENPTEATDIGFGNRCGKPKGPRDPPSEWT
structure (smiles),measurement,setting,value
COc1ccc(S(=O)(=O)Nc2ccc(F)cc2)cc1N(C)S(=O)(=O)c1ccc(Cl)cc1,IC50,Cannabinoid receptor 2 [1],> 32 µM (inactive)
same,EC50,[2],> 32 µM (inactive)
same,IC50,Cannabinoid receptor 1 [3],6.63 µM (active)
same,IC50,[4],> 32 µM (inactive)
same,IC50,[5],0.831 µM (active)
same,EC50,Cannabinoid receptor 1 [6],> 32 µM (inactive)
same,IC50,[7],0.908 µM (active)
same,EC50,Cannabinoid receptor 2 [8],> 32 µM (inactive)
Cc1cccc(C)c1NC(=O)C1(N(Cc2ccco2)C(=O)c2ccccn2)CCCC1,EC50,[9],4.05 µM (active)
same,IC50,[10],> 32 µM (inactive)
same,EC50,Mu-type opioid receptor [11],> 32 µM (inactive)
same,IC50,Mu-type opioid receptor [12],> 32 µM (inactive)
same,EC50,[13],4.19 µM
same,EC50,[14],1.11 µM (active)
same,IC50,[15],> 32 µM (inactive)
same,EC50,[16],> 32 µM (inactive)
same,EC50,[17],1.94 µM
same,IC50,[18],> 32 µM (inactive)
same,EC50,Mu-type opioid receptor [19],> 32 µM (inactive)
same,EC50,[20],> 32 µM (inactive)
O=C(O)COc1ccc(NC(=O)c2ccco2)cc1,IC50,[21],> 100 µM (inactive)
same,IC50,[22],> 100 µM (inactive)
same,IC50,[23],> 100 µM (inactive)
same,IC50,[24],> 100 µM (inactive)
same,IC50,[25],> 100 µM (inactive)
same,IC50,[26],> 100 µM (inactive)
C#CCn1/c(=N/C(=O)c2sc3ccccc3c2Cl)sc2cc(S(N)(=O)=O)ccc21,EC50,[27],16.2 µM (inactive)
same,EC50,[28],> 79.4 µM (not active)
same,EC50,[29],18.7 µM (not active)
CCOC(=O)CN1C(=O)/C(=C2\SC(=S)N(NC(=O)c3cccnc3)C2=O)c2ccccc21,IC50,[30],> 100 µM (inactive)
same,IC50,[31],11.2 µM (active)
same,IC50,[32],> 66 µM (inactive)
same,EC50,[33],25.5 µM (active)
same,IC50,[34],> 66 µM (inactive)
